Measured values: US6025376A, “Chiral methylphenyloxazolidinones” (Schering Aktiengesellschaft, priority 1995, dated 2000)

Columns and labels:
[1] = target: 3H-Rolipram bond in brain homogenates; assay: Displacement of radiolabeled Rolipram in brain homogenates; format: binding; conditions: calculated from IC50: Ki = IC50/[1+(L/KD)]
Protocol: The action of the enantiomers on the central nervous system was studied in vitro by examining their capacity to displace radiolabeled Rolipram in brain homogenates (Europ. Journ. of Pharmac. Vol. 127, 105-115 (1986)). The IC50 values (the concentration at which 50% inhibition action occurs) were converted to inhibition constant Ki, which is calculated according to the following formula: […]
in which L means the concentration of the radioactive tracer and KD means the dissociation constant of the ^3 H-Rolipram bond, which is determined separately.

[2] = test system: TNF-α release; assay: Inhibition of LPS-stimulated TNF-α release from macrophage cell line RAW 264 (Elisa); format: cell-based, murine; conditions: Mus musculus, RAW264.7, 30 min preincubation, LPS 10 ng/ml, 18 hours
Protocol: A murine macrophage cell line (RAW 264) was preincubated for 30 minutes in the presence and in the absence of various concentrations of PDE-IV inhibitors and then stimulated with LPS (10 ng/ml). 18 hours after stimulation, the culture medium was removed, and the TNF-α release was measured with a specific Elisa test. The test can be obtained from various companies, i.a., from the British biotechnology company Genzyme, and it is carried out as the manufacturer describes.

[3] = test system: phosphodiesterase type IV (PDE IV); assay: Head-twitch test in rats (characteristic of PDE IV inhibitors); format: in vivo, male Wistar rats; conditions: observed 15-75 minutes after injection, MED = lowest dose with statistically significant effect
Protocol: (§1) The improved effectiveness of the new chiral methylphenyloxazolidinone derivatives in comparison with the racemate can be shown based on the head twitch and grooming reactions in rats that are characteristic of phosphodiesterase type IV (PDE IV) inhibitors. The racemate and the appropriate enantiomers were administered intraperitoneally (i.p.) to male Wistar rats and the occurrence of head twitches and grooming for 15-75 minutes after injection was detected by observation.
(§2) MED: Minimum effective dose, i.e., the lowest dose that ensures a statistically significant effect.

[4] = test system: phosphodiesterase type IV (PDE IV); assay: Grooming reaction in rats (characteristic of PDE IV inhibitors); format: in vivo, male Wistar rats; conditions: observed 15-75 minutes after injection, MED = lowest dose with statistically significant effect
Protocol: as §1, §2

SMILES | Ki [1] [nM] | IC50 [2] [nM] | Head-Twitch Test MED i.p. [3] [mg/kg] | Grooming MED i.p. [4] [mg/kg]
CCCOc1cc([C@]2(C)CNC(=O)O2)ccc1OC [(R) - (-) - 2, (R)-(-)-5-(4-Methoxy-3-propoxyphenyl)-5-methyl-2-oxazolidinone] | 0.24 | 250 |  | 
CCCOc1cc([C@@]2(C)CNC(=O)O2)ccc1OC [(S) - (+) - 2, (S)-(+)-5-(4-Methoxy-3-propoxyphenyl)-5-methyl-2-oxazolidinone] | 16 | 2500 |  | 
COc1ccc([C@]2(C)CNC(=O)O2)cc1OC1CCCC1 [(R) - (-) - 1, (R)-(-)-5-(3-Cyclopentyloxy-4-methoxyphenyl)-5-methyl-2-oxazolidinone] | 0.34 |  | 0.39 | 0.1
COc1ccc([C@@]2(C)CNC(=O)O2)cc1OC1CCCC1 [(S) - (+) - 1, (S)-(+)-5-(3-Cyclopentyloxy-4-methoxyphenyl)-5-methyl-2-oxazolidinone] | 3 |  | 6.25 | 6.25
CCOc1cc([C@]2(C)CNC(=O)O2)ccc1OC [Ethyl- (R)-(-)-Isomer, (R)-(-)-5-(3-Ethoxy-4-methoxyphenyl)-5-methyl-2-oxazolidinone] | 0.33 |  |  | 
CCCOc1cc(C2(C)CNC(=O)O2)ccc1OC (racemic) [(RS) - 2, (R,S)-5-(4-Methoxy-3-propoxyphenyl)-5-methyl-2-oxazolidinone] | 0.61 | 500 |  | 
CCOc1cc([C@@]2(C)CNC(=O)O2)ccc1OC [Ethyl- (S)-(+)-Isomer, (S)-(+)-5-(3-Ethoxy-4-methoxyphenyl)-5-methyl-2-oxazolidinone] | 20 |  |  | 
CCOc1cc(C2(C)CNC(=O)O2)ccc1OC (racemic) [Ethyl- Racemate, (R,S)-5-(3-Ethoxy-4-methoxyphenyl)-5-methyl-2-oxazolidinone] | 0.68 |  |  | 
COc1ccc(C2(C)CNC(=O)O2)cc1OC1CCCC1 (racemic) [(R,S) - 1, (R,S)-5-(3-Cyclopentyloxy-4-methoxyphenyl)-5-methyl-2-oxazolidinone] | 0.57 |  | 1.56 | 0.1
